Experimental data as given in patent publication US10851073B2, “Protein tyrosine phosphatase inhibitors and methods of use thereof” (Calico Life Sciences LLC, priority 2019, dated 2020).
Like-named read-outs stand apart in the source and are kept apart here.

What was measured:
[1] = tested on: B16F10 mouse melanoma cells; assay: B16F10 IFNγ-induced cellular growth inhibition assay; type: cell-based; conditions: B16-F10, with 0.5 ng/mL IFNγ
Procedure, shortened: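 B16F10 cells grown in DMEM+10% FBS, with or without 0.5 ng/mL final mouse IFNγ, and dosed in triplicate at 100 μM to 0.001 μM final (0.1% DMSO). Confluence imaged every 6 h for 5 days; percent growth inhibition versus DMSO/with-IFNγ control taken once DMSO/no-IFNγ wells exceeded 95% confluence, giving IC50.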

[2] = target: T1, His tagged PTPN2 (TC45) protein (Homo sapiens, UniProt P17706); assay: Mobility shift assay used to determine potency of PTPN2 inhibitors; type: biochemical; conditions: enzyme 0.5 nM, substrate 2 μM; read-out: PTPN2 MSA IC50
T1 construct: made in house
T1 sequence (P17706 with tags, fused parts or gaps isoform P17706-2): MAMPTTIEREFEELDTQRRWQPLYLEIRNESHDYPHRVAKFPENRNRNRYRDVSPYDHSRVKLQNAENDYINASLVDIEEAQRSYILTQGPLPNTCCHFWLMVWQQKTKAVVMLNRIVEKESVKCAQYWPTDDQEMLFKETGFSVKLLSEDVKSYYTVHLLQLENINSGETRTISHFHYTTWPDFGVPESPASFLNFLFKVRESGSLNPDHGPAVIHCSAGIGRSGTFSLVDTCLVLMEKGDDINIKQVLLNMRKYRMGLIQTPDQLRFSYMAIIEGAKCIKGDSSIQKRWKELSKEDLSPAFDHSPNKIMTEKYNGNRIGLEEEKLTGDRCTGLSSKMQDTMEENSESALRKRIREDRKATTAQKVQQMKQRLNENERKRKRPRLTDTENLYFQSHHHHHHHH
Procedure, shortened: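 Microfluidic mobility-shift read-out (488/530 nm) of dephosphorylation of an OG488-tagged phosphotyrosine insulin receptor peptide, 2 μM, over 10 min at room temperature, after 10 min compound preincubation with 0.5 nM enzyme. Buffer: 50 mM HEPES pH 7.5, EGTA, EDTA, Tween 20, DTT. IC50 derived from % inhibition over 12-point 1:3 series.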

[3] = read-out: B16F10 Growth Inhibition IC50

Compound	IC50 ([1]; read-out: B16F10 GI IC50)	IC50 [1, 3]	IC50 [2]
O=C1CN(c2c(O)cc3c(c2F)C[C@H](NCCC2CC2)CC3)S(=O)(=O)N1 (single isomer, unassigned) [Compound 133]	< 1000 nM	220 nM	1 to 10 nM
CC(C)CCN[C@@H]1CCc2cc(O)c(N3CC(=O)NS3(=O)=O)c(F)c2C1 (single isomer, unassigned) [Compound 118]	< 1000 nM	110 nM	1 to 10 nM
CC(C)(CCN[C@@H]1CCc2cc(O)c(N3CC(=O)NS3(=O)=O)c(F)c2C1)C(F)(F)F (single isomer, unassigned) [Compound 177]	< 1000 nM	140 nM	< 1 nM

Now from value to compound, other results behind:

IC50 ([1]; read-out: B16F10 GI IC50)	IC50 [1, 3]	Compound	IC50 [2]
1000 to 10000 nM	1500 nM	O=C1CN(c2c(O)cc3c(c2F)C[C@@H](NCCC(F)F)CC3)S(=O)(=O)N1 (single isomer, unassigned) [Compound 259]	10 to 100 nM
< 1000 nM	< 50 nM	O=C1CN(c2c(O)cc3c(c2F)C[C@H](NCCCC(F)F)CC3)S(=O)(=O)N1 (single isomer, unassigned) [Compound 199]	< 1 nM
< 1000 nM	180 nM	O=C1CN(c2c(O)cc3c(c2F)C[C@H](NCCC(F)F)CC3)S(=O)(=O)N1 (single isomer, unassigned) [Compound 260]	1 to 10 nM
